From patent US7868005B2, “Pyrazinyl substituted piperazine-piperidines with CXCR3 antagonist activity” (Schering Corporation, priority 2005, dated 2011)

Target: T1, human CXCR3 (N-delta 4) (Homo sapiens, UniProt P49682)
T1 construct: CD8 leader (N); Flag; expressed in transfected cells; membranes prepared
T1 sequence (P49682 5-368 limits assumed): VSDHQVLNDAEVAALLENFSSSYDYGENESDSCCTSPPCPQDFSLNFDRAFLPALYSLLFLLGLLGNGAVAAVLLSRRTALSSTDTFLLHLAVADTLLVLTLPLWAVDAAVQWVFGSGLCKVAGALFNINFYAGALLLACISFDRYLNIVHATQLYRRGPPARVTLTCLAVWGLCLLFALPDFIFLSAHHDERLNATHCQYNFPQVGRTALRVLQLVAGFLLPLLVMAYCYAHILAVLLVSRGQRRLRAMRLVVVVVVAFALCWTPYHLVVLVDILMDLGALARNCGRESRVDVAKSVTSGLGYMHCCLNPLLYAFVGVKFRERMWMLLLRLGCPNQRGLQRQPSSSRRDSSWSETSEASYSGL
Experiment: Human CXCR3 (N-delta 4) Scintillation Proximity Assay (SPA), [125I] IP-10 binding to Ba/F3-hCXCR3 membranes
Settings: IC50 rating, Table 1; read-out: IC50

Row | Structure (SMILES) | IC50
1 | CC[C@H]1CN(c2nc(N)c(C(=O)NCCO)nc2Cl)CCN1C1CCN([C@H](C(=O)OC)c2ccc(F)c(F)c2)CC1 [compound 198] | > 100 nM
2 | CC[C@H]1CN(c2nc(N)c(C(=O)NCCO)nc2Cl)CCN1C1CCN(Cc2cc(F)c(Cl)cc2OCCOC)CC1 [compound 143] | < 25 nM
3 | CNC(=O)c1nc(Cl)c(N2CCN(C3CCN(Cc4ccc(Cl)cc4)CC3)[C@@H](C)C2)nc1N [compound 65] | < 25 nM
4 | CC[C@H]1CN(c2nc(N)c(C(N)=O)nc2Cl)CCN1C1CCN(Cc2ccc(Cl)cc2C2NC(=O)NC2=O)CC1 (some centres unmarked) [compound 43] | > 100 nM
5 | CC[C@H]1CN(c2nc(N)c(C(=O)NCCO)nc2Cl)CCN1C1CCN(Cc2ccc(Cl)cc2OCCNC(=O)OC(C)(C)C)CC1 [compound 120] | < 25 nM
6 | CC[C@H]1CN(c2nc(N)c(C(=O)NN)nc2Cl)CCN1C1CCN(Cc2ccc(Cl)cc2)CC1 [compound 271] | < 25 nM
7 | CCc1nc(C(N)=O)cnc1N1CCN(C2CCN(C(=O)c3ccc(Cl)cc3)CC2)[C@@H](CC)C1 [compound 423] | 25 to 100 nM
8 | CC[C@H]1CN(c2ncc(C(=O)NC3CC3)nc2C)CCN1C1CCN(Cc2ccc(C)cc2)CC1 [compound 439] | < 25 nM
9 | CC[C@H]1CN(c2nc(N)c(C(=O)NCCO)nc2Cl)CCN1C1CCN(Cc2ccc(C(=O)OC)cc2)CC1 [compound 117] | < 25 nM
10 | CC[C@H]1CN(c2ncc(C(N)=O)nc2C)[C@H](C)CN1C1CCN(Cc2ccc(F)cc2)CC1 [compound 432] | < 25 nM
11 | CC[C@H]1CN(c2nc(N)c(C(=O)NCCO)nc2Cl)CCN1C1CCN(Cc2ccc(Cl)cc2O[C@H]2CCOC2)CC1 [compound 189] | 25 to 100 nM
12 | CC[C@H]1CN(c2nc(N)c(C(=O)NCCO)nc2Cl)CCN1C1CCN(C(CCOC)c2ccc(Cl)cc2)CC1 (some centres unmarked) [compound 187] | 25 to 100 nM
13 | CC[C@H]1CN(c2nc(N)c(C(N)=O)nc2Cl)CCN1C1CCN(Cc2ccc(Cl)cc2C#N)CC1 [compound 20] | < 25 nM
14 | CC[C@H]1CN(c2nc(N)c(C(=O)NCCNS(N)(=O)=O)nc2Cl)CCN1C1CCN([C@@H](C(=O)OC)c2ccc(Cl)cc2)CC1 [compound 261] | 25 to 100 nM
15 | CC[C@H]1CN(c2nc(N)c(C(=O)NC)nc2Cl)CCN1C1CCN(C(=O)c2ccc(Cl)c(N)c2)CC1 [compound 365] | > 100 nM
16 | CC[C@H]1CN(c2nc(N)c(C(=O)NCCNS(C)(=O)=O)nc2Cl)CCN1C1CCN([C@@H](C(=O)OC)c2ccc(Cl)cc2)CC1 [compound 250] | 25 to 100 nM
17 | CC[C@H]1CN(c2nc(N)c(C(N)=O)nc2Cl)CCN1C1CCN(Cc2ccc(Cl)cc2C(O)C(=O)N(C)C)CC1 (some centres unmarked) [compound 18] | < 25 nM
18 | CC[C@H]1CN(c2nc(N)c(C(=O)NCCNS(=O)(=O)CC)nc2Cl)CCN1C1CCN(Cc2ccc(C#N)cc2)CC1 [compound 242] | 25 to 100 nM
19 | CC[C@H]1CN(c2nc(N)c(C(=O)NC[C@@H](C)O)nc2Cl)CCN1C1CCN(Cc2ccc(Cl)cc2C(O)C(=O)OC)CC1 (some centres unmarked) [compound 219] | < 25 nM
20 | CCNC(=O)NCCc1cc(Cl)ccc1CN1CCC(N2CCN(c3nc(N)c(C(=O)OC)nc3Cl)C[C@@H]2CC)CC1 [compound 298] | 25 to 100 nM
21 | CC[C@H]1CN(c2nc(N)c(C(=O)NC3CC3)nc2Cl)CCN1C1CCN(Cc2ccc(Cl)cc2)CC1O (some centres unmarked) [compound 95] | 25 to 100 nM

Row | Structure (SMILES) | IC50
22 | CC[C@H]1CN(c2nc(N)c(C(N)=O)nc2Cl)CCN1C1CCN(Cc2ccc(Cl)cc2C(=N)N)CC1 [compound 2] | < 25 nM
23 | CC[C@H]1CN(c2nc(N)c(C(=O)NCCO)nc2Cl)CCN1C1CCN([C@@H](C(=O)OC)c2ccc(F)c(F)c2)CC1 [compound 185] | 25 to 100 nM
24 | CC[C@H]1CN(c2nc(N)c(C(=O)OC)nc2Cl)CCN1C1CCN(C2c3ccc(C#N)cc3CCC2O)CC1 (some centres unmarked) [compound 305] | > 100 nM
25 | CC[C@H]1CN(c2nc(N)c(C(=O)NC(=N)NC)nc2Cl)CCN1C1CCN(Cc2ccc(OC(F)(F)F)cc2)CC1 [compound 391] | < 25 nM
26 | CC[C@H]1CN(c2nc(N)c(C(=O)NCc3cc(O)no3)nc2Cl)CCN1C1CCN(Cc2ccc(Cl)cc2)CC1 [compound 212] | > 100 nM
27 | CC[C@H]1CN(c2ncc(C(N)=O)nc2C)CCN1C1CCN(Cc2ccc(C)c(F)c2)CC1 [compound 433] | < 25 nM
28 | CC[C@H]1CN(c2nc(N)c(C(=O)NCCCNS(=O)(=O)C(F)(F)F)nc2Cl)CCN1C1CCN(Cc2ccc(C#N)cc2)CC1 [compound 225] | > 100 nM
29 | CC[C@H]1CN(c2nc(N)c(C(=O)NCCO)nc2Cl)CCN1C1CCN(C(=O)c2ccc(Cl)cc2C(C)C#N)CC1 (some centres unmarked) [compound 344] | 25 to 100 nM
30 | CC[C@H]1CN(c2ncc(C(=O)NC3CC3)nc2C)CCN1C1CCN(C(=O)c2ccc(C)cc2)CC1 [compound 446] | < 25 nM
31 | CC[C@H]1CN(c2nc(N)c(C(=O)NC)nc2Cl)CCN1C1CCN(C(=O)c2c(C)cc(OCc3ccccc3)cc2C)CC1 [compound 367] | > 100 nM
32 | CC[C@H]1CN(c2nc(N)c(C(=O)NC)nc2Cl)CCN1C1CCN(CCCCc2ccc(Cl)cc2)CC1 [compound 72] | 25 to 100 nM
33 | CC[C@H]1CN(c2nc(N)c(C(=O)NCCO)nc2Cl)CCN1C1CCN(Cc2ccc(Cl)cc2OCCNS(=O)(=O)C(F)(F)F)CC1 [compound 132] | < 25 nM
34 | CC[C@H]1CN(c2cnc(C(N)=O)cn2)CCN1C1CCN(Cc2ccc(Cl)cc2)CC1 [compound 425] | > 100 nM
35 | CC[C@H]1CN(c2ncc(C(=O)NC3CC3)nc2C)CCN1C1CCN(C(=O)c2ccc(F)cc2F)CC1 [compound 462] | < 25 nM
36 | CC[C@H]1CN(c2nc(N)c(C(N)=O)nc2Cl)CCN1C1CCN(Cc2ccc(Cl)cc2[C@@H](O)C(N)=O)CC1 [compound 28] | 25 to 100 nM
37 | CC[C@H]1CN(c2ncc(C(=O)NC3CC3)nc2C)CCN1C1CCN(Cc2ccc(C(F)(F)F)cc2)CC1 [compound 473] | < 25 nM
38 | CC[C@H]1CN(c2nc(N)c(C(N)=O)nc2Cl)CCN1C1CCN(Cc2ccc(Cl)cc2CC(=O)NCC(C)O)CC1 (some centres unmarked) [compound 21] | < 25 nM
39 | CC[C@H]1CN(c2nc(N)c(C(=O)NC3CC3)nc2Cl)CCN1C1CCN(Cc2ccc(Cl)cc2S(C)(=O)=O)CC1 [compound 420] | < 25 nM
40 | CC[C@H]1CN(c2nc(NC(=O)N(C)C)c(C(=O)OC)nc2Cl)CCN1C1CCN(Cc2ccc(Cl)cc2)CC1 [compound 291] | 25 to 100 nM
41 | CC[C@H]1CN(c2nc(N)c(C(=O)NC(=N)NC)nc2Cl)CCN1C1CCN(C(=O)c2ccc(Cl)c(F)c2)CC1 [compound 392] | < 25 nM
42 | CC[C@H]1CN(c2nc(N)c(C(=O)N3CC[C@H](NS(C)(=O)=O)C3)nc2Cl)CCN1C1CCN(Cc2ccc(Cl)cc2)CC1 [compound 209] | > 100 nM

Row | Structure (SMILES) | IC50
43 | CC[C@H]1CN(c2ncc(C(N)=O)nc2Cl)CCN1C1CCN([C@@H](CO)c2ccc(Cl)cc2)CC1 [compound 457] | < 25 nM
44 | CC[C@H]1CN(c2nc(N)c(C(=O)NCCO)nc2Cl)CCN1C1CCN(Cc2ccc(Cl)cc2)CC1 [compound 110] | < 25 nM
45 | CC[C@H]1CN(c2nc(N)c(C(=O)NCCO)nc2Cl)CCN1C1CCN(C(C(=O)OC)c2ccc(Cl)cc2OC)CC1 (some centres unmarked) [compound 206] | > 100 nM
46 | CCNC(=O)c1nc(Cl)c(N2CCN(C3CCN(C(C)(C)c4ccc(Cl)cc4)CC3)[C@@H](CC)C2)nc1N [compound 104] | 25 to 100 nM
47 | CC[C@H]1CN(c2nc(N)c(C(=O)NC)nc2Cl)CCN1C1CCN(C(=N)c2ccc(Cl)cc2)CC1 [compound 371] | < 25 nM
48 | CC[C@H]1CN(c2nc(N)c(C(=O)NC)nc2Cl)CCN1C1CCN(C(=O)c2ccc(Cl)c(F)c2)CC1 [compound 336] | < 25 nM
49 | CC[C@H]1CN(c2nc(N)c(C(=O)NCCO)nc2Cl)CCN1C1CCN(C(=O)c2ccc(Cl)cc2CC#N)CC1 [compound 317] | < 25 nM
50 | CC[C@H]1CN(c2nc(N)c(C(=O)NCCO)nc2Cl)CCN1C1CCN(Cc2ccc(OCCSC)c(F)c2)CC1 [compound 415] | < 25 nM
51 | CC[C@H]1CN(c2nc(N)c(C(N)=O)nc2Cl)CCN1C1CCN(Cc2ccc(Cl)cc2NC(=O)C(C)O)CC1 (some centres unmarked) [compound 377] | 25 to 100 nM
52 | CC[C@H]1CN(c2nc(N)c(C(=O)NCCO)nc2Cl)CCN1C1CCN(Cc2ccc(F)c(F)c2N2CC[C@@H](O)C2)CC1 [compound 135] | < 25 nM
53 | CC[C@H]1CN(c2nc(N)c(C(=O)NC[C@@H](C)O)nc2Cl)CCN1C1CCN(Cc2ccc(C#N)cc2)CC1 [compound 221] | < 25 nM
54 | CC[C@H]1CN(c2nc(N)c(C(=O)NCCO)nc2Cl)CCN1C1CCN(Cc2ccc(N3CCOCC3)c(F)c2F)CC1 [compound 205] | > 100 nM
55 | CCNC(=O)c1nc(Cl)c(N2CCN(C3CCN(C(C)(C)c4ccc(Cl)cc4)CC3)[C@@H](C)C2)nc1N [compound 106] | > 100 nM
56 | CC[C@H]1CN(c2nc(N)c(C(N)=O)nc2Cl)CCN1C1CCN(Cc2ccc(Cl)cc2CC(=O)N2CCOCC2)CC1 [compound 55] | > 100 nM
57 | CC[C@H]1CN(c2nc(N)c(C(=O)NCCNS(N)(=O)=O)nc2Cl)CCN1C1CCN(Cc2ccc(C#N)cc2)CC1 [compound 266] | < 25 nM
58 | CC[C@H]1CN(c2ncc(C(N)=O)nc2C)[C@H](C)CN1C1CCN([C@@H](CO)c2ccc(Cl)cc2)CC1 [compound 453] | < 25 nM
59 | CC[C@H]1CN(c2nc(N)c(C(=O)NCCO)nc2Cl)CCN1C1CCN(Cc2ccc(Cl)cc2C(C)C(=O)O)CC1 (some centres unmarked) [compound 202] | > 100 nM
60 | CC[C@H]1CN(c2nc(N)c(C(=O)NCCNS(=O)(=O)C(F)(F)F)nc2Cl)CCN1C1CCN(Cc2ccc(F)c(F)c2N2CC[C@@H](O)C2)CC1 [compound 240] | < 25 nM
61 | CC[C@H]1CN(c2nc(N)c(C(=O)NCCO)nc2Cl)CCN1C1CCN(Cc2ccc(OC(F)(F)F)cc2OCC(N)=O)CC1 [compound 174] | < 25 nM
62 | CC[C@H]1CN(c2nc(N)c(C(=O)NCCNS(N)(=O)=O)nc2Cl)CCN1C1CCN(Cc2ccc(Cl)cc2C(=N)N)CC1 [compound 258] | < 25 nM
